Data on eight compounds can be found in US10479780B2, “Aminopyrazole derivatives” (Chugai Seiyaku Kabushiki Kaisha, priority 2015, dated 2019).

Structures are written as SMILES. Like-named read-outs stand apart in the source and are kept apart here.

Holding throughout (format): biochemical
In one assay the target is T1, human Lck enzyme (Homo sapiens, UniProt P06239).
T1 construct: purchased Carna Biosciences, Inc. 08-170
In words: Lck enzyme inhibitory activity (time-resolved fluorometry, biotinylated peptide phosphorylation). Particulars: read-out: LCK_IC50. In short, it runs like this: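 Readout pairs a europium cryptate-labelled anti-phosphotyrosine antibody with XL665-streptavidin, measured by time-resolved fluorescence. IC50 derived from percent inhibition against untreated controls.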

The target of another assay is T2, human Src enzyme (Homo sapiens, UniProt P12931).
T2 construct: purchased Carna Biosciences, Inc. 08-173
In words: Src enzyme inhibitory activity (time-resolved fluorometry, biotinylated peptide phosphorylation). Particulars: read-out: SRC_IC50. In short, it runs like this: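 Compounds were tested for blocking tyrosine phosphorylation of a biotinylated peptide substrate by recombinant human Src. Phosphorylated product was quantified by time-resolved fluorometry using europium cryptate and XL665 conjugates, and IC50 was calculated against the compound-free control.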

For the next assay, the target named is T3, human Yes1 enzyme (Homo sapiens, UniProt P07947).
T3 construct: made in house
In words: Yes1 enzyme inhibitory activity (time-resolved fluorometry, biotinylated peptide phosphorylation). The following applies: read-out: YES_IC50. In short, it runs like this: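 Inhibition was expressed against a compound-free control to give IC50, using TR-FRET read-out (Eu-cryptate anti-pTyr antibody, streptavidin-XL665).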

[1] abbreviates: biotinylated peptide phosphorylation.

T3 sequence (P07947 whole entry): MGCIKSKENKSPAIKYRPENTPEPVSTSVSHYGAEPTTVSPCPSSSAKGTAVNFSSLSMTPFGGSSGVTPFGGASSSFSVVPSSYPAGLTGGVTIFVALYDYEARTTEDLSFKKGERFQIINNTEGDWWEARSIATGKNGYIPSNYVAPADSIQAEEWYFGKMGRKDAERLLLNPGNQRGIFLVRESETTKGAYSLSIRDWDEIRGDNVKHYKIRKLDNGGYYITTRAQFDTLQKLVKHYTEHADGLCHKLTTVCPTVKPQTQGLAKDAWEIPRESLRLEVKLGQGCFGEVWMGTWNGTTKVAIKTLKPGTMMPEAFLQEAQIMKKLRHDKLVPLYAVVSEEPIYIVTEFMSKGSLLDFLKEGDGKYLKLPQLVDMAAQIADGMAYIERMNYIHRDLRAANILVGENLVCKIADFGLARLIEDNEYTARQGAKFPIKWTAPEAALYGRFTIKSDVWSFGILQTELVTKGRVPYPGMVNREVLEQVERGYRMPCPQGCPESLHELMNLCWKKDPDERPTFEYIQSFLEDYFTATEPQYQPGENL
T2 sequence (P12931 whole entry): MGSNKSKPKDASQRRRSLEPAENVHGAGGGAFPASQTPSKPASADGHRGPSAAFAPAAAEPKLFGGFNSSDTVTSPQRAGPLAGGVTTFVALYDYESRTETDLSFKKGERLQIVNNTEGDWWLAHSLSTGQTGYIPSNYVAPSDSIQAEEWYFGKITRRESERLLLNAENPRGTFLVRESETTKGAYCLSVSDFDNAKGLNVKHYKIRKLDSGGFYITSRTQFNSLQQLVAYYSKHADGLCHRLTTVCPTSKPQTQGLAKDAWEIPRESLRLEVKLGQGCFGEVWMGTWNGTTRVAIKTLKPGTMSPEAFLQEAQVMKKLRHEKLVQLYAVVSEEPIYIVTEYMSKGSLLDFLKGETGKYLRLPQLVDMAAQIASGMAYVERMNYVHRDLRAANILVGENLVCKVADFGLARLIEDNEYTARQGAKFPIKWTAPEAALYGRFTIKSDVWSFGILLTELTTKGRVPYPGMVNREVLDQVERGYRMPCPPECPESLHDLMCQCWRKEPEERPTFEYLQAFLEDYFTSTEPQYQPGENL
T1 sequence (P06239 whole entry): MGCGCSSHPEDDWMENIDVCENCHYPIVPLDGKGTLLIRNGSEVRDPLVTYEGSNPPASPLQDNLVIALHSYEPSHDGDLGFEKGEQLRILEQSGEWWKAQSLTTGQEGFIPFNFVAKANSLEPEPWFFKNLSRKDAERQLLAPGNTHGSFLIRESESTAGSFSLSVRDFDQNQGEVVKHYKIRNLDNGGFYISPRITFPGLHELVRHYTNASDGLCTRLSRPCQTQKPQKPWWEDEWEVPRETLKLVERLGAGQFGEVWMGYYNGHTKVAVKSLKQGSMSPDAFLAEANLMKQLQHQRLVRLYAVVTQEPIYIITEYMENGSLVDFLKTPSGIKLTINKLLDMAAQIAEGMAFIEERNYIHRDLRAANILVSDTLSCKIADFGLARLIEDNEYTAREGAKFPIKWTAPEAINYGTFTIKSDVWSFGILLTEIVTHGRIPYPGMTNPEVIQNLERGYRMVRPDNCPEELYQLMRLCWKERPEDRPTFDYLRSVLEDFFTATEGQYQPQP

Take `Cc1cc(Oc2ccccc2F)ccc1-n1ncc(C(=O)c2cc3cc(OCC(F)F)c(Br)cc3[nH]2)c1N` [Example 5-1-070, [5-amino-1-[4-(2-fluorophenoxy)-2-methylphenyl]pyrazol-4-yl]-[6-bromo-5-(2,2-difluoroethoxy)-1H-indol-2-yl]methanone]: the IC50 came to 12 nM at human Lck enzyme, 13 nM on human Src enzyme and 0.85 nM on human Yes1 enzyme.
For the compound `Cc1cc2cc(C(=O)c3cnn(-c4cnc(Oc5cccc(Cl)c5)cc4C)c3N)[nH]c2cc1NS(=O)(=O)CCCF` [Example 4-2-075, N-[2-[5-amino-1-[6-(3-chlorophenoxy)-4-methylpyridin-3-yl]pyrazole-4-carbonyl]-5-methyl-1H-indol-6-yl]-3-fluoropropane-1-sulfonamide], the IC50 on human Lck enzyme (setting [1]) was found to be 110 nM; on human Src enzyme (setting [1]) it was 170 nM; on human Yes1 enzyme (setting [1]), 10 nM.
On to `Cc1cc(Oc2c(F)cccc2F)ncc1-n1ncc(C(=O)c2cc3cc(OCC(F)F)c(NS(=O)(=O)c4cccc(C#N)c4)cc3[nH]2)c1N` [Example 5-1-382, N-[2-[5-amino-1-[6-(2,6-difluorophenoxy)-4-methylpyridin-3-yl]pyrazole-4-carbonyl]-5-(2,2-difluoroethoxy)-1H-indol-6-yl]-3-cyanobenzenesulfonamide], for which the IC50 on human Lck enzyme was determined as 31 nM; on human Src enzyme, 260 nM; on human Yes1 enzyme, 2.5 nM.
For `Cc1cc(Oc2ccccc2F)ccc1-n1ncc(C(=O)c2cc3cc(N4CCOCC4)c(-n4c(C)cc(=O)[nH]c4=O)cc3[nH]2)c1N` [Example 5-1-116, 1-[2-[5-amino-1-[4-(2-fluorophenoxy)-2-methylphenyl]pyrazole-4-carbonyl]-5-morpholin-4-yl-1H-indol-6-yl]-6-methylpyrimidine-2,4-dione], in that order: 1.6 nM, 5.2 nM and 0.51 nM.
For `Cc1cnc(F)c(S(=O)(=O)Nc2cc3[nH]c(C(=O)c4cnn(-c5cnc(Oc6ccccc6F)cc5C)c4N)cc3cc2C)c1` [Example 5-1-504, N-[2-[5-amino-1-[6-(2-fluorophenoxy)-4-methylpyridin-3-yl]pyrazole-4-carbonyl]-5-methyl-1H-indol-6-yl]-2-fluoro-5-methylpyridine-3-sulfonamide], the figures for the IC50 on human Lck enzyme (setting [1]), on human Src enzyme (setting [1]) and on human Yes1 enzyme (setting [1]) were 140 nM, 630 nM and 3.6 nM, respectively.
For the compound `Cc1cc(-n2ncc(C(=O)c3cc4cc(OC5CCN(C(C)C)CC5)c(N5C(=O)N[C@@H](CO)C5=O)cc4[nH]3)c2N)ccc1Oc1ccccc1F` [Example 5-1-293, (5S)-3-[2-[5-amino-1-[4-(2-fluorophenoxy)-3-methylphenyl]pyrazole-4-carbonyl]-5-(1-propan-2-ylpiperidin-4-yl)oxy-1H-indol-6-yl]-5-(hydroxymethyl)imidazolidine-2,4-dione], the results for the IC50 on human Lck enzyme, at human Src enzyme and at human Yes1 enzyme were 18 nM, 440 nM and 0.73 nM, respectively.
For `Cc1cc2cc(C(=O)c3cnn(-c4cnc(Oc5ccccc5F)cc4C)c3N)[nH]c2cc1N1C(=O)NC(C)(C)C1=O` [Example 5-1-334, 3-[2-[5-amino-1-[6-(2-fluorophenoxy)-4-methylpyridin-3-yl]pyrazole-4-carbonyl]-5-methyl-1H-indol-6-yl]-5,5-dimethylimidazolidine-2,4-dione], in that order: 4 nM, 41 nM and 1.3 nM.
Consider `Cc1cc(Oc2ccccc2F)ncc1-n1ncc(C(=O)c2cc3cc(OCC(F)F)c(NS(=O)(=O)c4cccnc4)cc3[nH]2)c1N` [Example 5-1-425, N-[2-[5-amino-1-[6-(2-fluorophenoxy)-4-methylpyridin-3-yl]pyrazole-4-carbonyl]-5-(2,2-difluoroethoxy)-1H-indol-6-yl]pyridine-3-sulfonamide], for which the IC50 at human Lck enzyme (setting [1]) turned out to be 39 nM; on human Src enzyme (setting [1]), 95 nM; on human Yes1 enzyme (setting [1]), 1.5 nM.
